According to patent US20250025488A1, “NUCLEIC ACIDS FOR INHIBITING EXPRESSION OF TMPRSS6 AND IRON CHELATORS” (SILENCE THERAPEUTICS GMBH, priority 2018, published 2025):
Oligonucleotides are written 5' to 3', each unit as a sugar letter and its base; * is a phosphorothioate linkage, no mark a phosphodiester; rarer units and linkages stand in square brackets, end groups in braces. Plain capitals give the bases only. m = 2'-O-methyl; f = 2'-fluoro

Assays:
[1] = target: T1, Asialoglycoprotein receptor (ASGP-R) (Homo sapiens, UniProt P07306+P07307); settings: higher affinity; cited from earlier work
T1 sequence (P07306 1-291): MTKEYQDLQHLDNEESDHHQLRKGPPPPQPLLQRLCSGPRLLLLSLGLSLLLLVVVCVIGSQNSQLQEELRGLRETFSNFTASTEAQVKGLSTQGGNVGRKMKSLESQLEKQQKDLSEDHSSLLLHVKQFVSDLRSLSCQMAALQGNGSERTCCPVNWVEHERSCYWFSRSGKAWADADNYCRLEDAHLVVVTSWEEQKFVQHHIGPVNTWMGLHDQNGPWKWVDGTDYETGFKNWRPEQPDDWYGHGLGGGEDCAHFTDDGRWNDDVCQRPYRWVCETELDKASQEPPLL
T1 sequence (P07307 1-311): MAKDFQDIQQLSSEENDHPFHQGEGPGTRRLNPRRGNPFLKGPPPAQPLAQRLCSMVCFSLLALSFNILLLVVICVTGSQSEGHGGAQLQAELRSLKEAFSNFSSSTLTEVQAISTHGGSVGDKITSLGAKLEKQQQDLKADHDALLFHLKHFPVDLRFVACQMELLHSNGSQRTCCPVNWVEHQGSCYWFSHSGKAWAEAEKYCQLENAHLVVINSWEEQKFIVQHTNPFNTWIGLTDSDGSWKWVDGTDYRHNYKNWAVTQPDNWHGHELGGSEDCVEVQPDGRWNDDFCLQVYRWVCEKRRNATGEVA

TMPRSS6 mRNA [2] = test: Dose response of TMPRSS6 nucleic acids for inhibition of TMPRSS6 expression in human Hep3B cells; assay type: cell-based; settings: 30-0.003 nM nucleic acid (Luciferase 30 and 10 nM) + 1 μg/ml AtuFECT, two days, normalized to PTEN
Experimental: Cells were plated at a cell density of 150,000 cells per 6 well dish. The following day cells were transfected with 1 μg/ml AtuFECT (50:50 formulation of cationic lipid Atufect01 and fusogenic lipid DPhyPE) and different amounts of TMPRSS6 nucleic acids (30; 10; 3; 1; 0.3; 0.1, 0.003 nM, respectively) as depicted by the X-axis of the graph in FIG. 2. For non targeting control samples, cells were transfected with 30 and 10 nM nucleic acid for Luciferase. Two days after the transfection cells were lysed and mRNA levels were determined by q-RT-PCR. TMPRSS6 mRNA levels were normalized to the expression levels of the house keeping gene PTEN. […] Sequences of RNAi molecules are depicted in Table 1.

TMPRSS6 mRNA [3] = test: Dose-response of siRNAs against TMPRSS6 in Hep3B cells; assay type: cell-based, human; settings: siRNA 100 nM-0.03 nM + 1 μg/ml AtuFECT, two days after transfection, TMPRSS6 mRNA normalized to ApoB, from dose-response curves FIG. 35; for Max inhibition: relative to 100 nM Luciferase-control siRNA
Experimental: 8000 cells per well were plated in 96-well plates. The following day cells were transfected with siRNA in indicated concentrations (100 nM-0.03 nM) and 1 μg/ml AtuFECT. Two days after transfection cells were lysed and TMPRSS6 mRNA levels were determined by q-RT-PCR. TMPRSS6 mRNA levels were normalized to expression levels of the house keeping gene ApoB. Average inhibition and standard deviation of triplicate values relative to cells treated with 100 nM of a non-targeting Luciferase-control siRNA are shown in FIG. 35.

TMPRSS6 mRNA [4] = test: Reduction of TMPRSS6 mRNA expression by different siRNAs in Hep3B cells (20 nM, 96-well); assay type: cell-based, human; settings: 20 nM siRNA + 1 μg/ml AtuFECT, two days after transfection, TMPRSS6 mRNA normalized to ApoB, relative to untreated cells
Experimental: 8000 cells per well were plated in 96-well plates. The following day cells were transfected with 20 nM siRNA and 1 μg/ml AtuFECT. Two days after transfection cells were lysed and TMPRSS6 mRNA levels were determined by q-RT-PCR. TMPRSS6 mRNA levels were normalized to expression levels of the house keeping gene ApoB. An siRNAs against Luciferase was used as non targeting control.

| Compound | Affinity of ASGP-R for GalNAc relative to D-Gal [1] | TMPRSS6 mRNA expression (TMPRSS6 mRNA [2]) | IC50 (TMPRSS6 mRNA [3]) | Max inhibition (TMPRSS6 mRNA [3]) | kd at 20 nM as shown in FIG. 34 (TMPRSS6 mRNA [4]) |
| --- | --- | --- | --- | --- | --- |
| CC(=O)N[C@H]1C(O)O[C@H](CO)[C@H](O)[C@@H]1O (stereo partly drawn) [N-Acetyl-D-Galactosylamine (GalNAc), 2-(Acetylamino)-2-deoxy-D-galactopyranose] | 50 fold |  |  |  |  |
| Luciferase nucleic acid: non targeting control nucleic acid for Luciferase, SEQ ID NO 31/32 (chain 1 UCGAAGUAUUCCGCGUACG; chain 2 CGUACGCGGAAUACUUCGA; listed as RNA, chemistry not given here) [reference compound] |  | did not affect TMPRSS6 mRNA levels |  |  |  |
| TMPRSS6-hcm9: siRNA, SEQ ID NO 17/18, alternating 2′OMe/2′F; TMP01 = strands TMPJH01A/TMPJH01B, same chemistry (chain 1 AACCAGAAGAAGCAGGUGA; chain 2 UCACCUGCUUCUUCUGGUU; chain 1: sugars from the 5' end mfmfmfmfmfmfmfmfmfm, backbone not given here; chain 2: sugars from the 5' end fmfmfmfmfmfmfmfmfmf, backbone not given here; further chemistry not fully specified) |  | highest reduction of TMPRSS6 mRNA expression |  |  |  |
| TMPRSS6-hcmr-24: siRNA against TMPRSS6, SEQ ID NO 209/210 (chain 1 mCfUmCfAmCfCmUfUmGfAmAfGmGfAmCfAmCfCmU; chain 2 fAmGfGmUfGmUfCmCfUmUfCmAfAmGfGmUfGmAfG) |  |  | 0.8 nM | 73% | 70% |
| TMPRSS-SR-5: siRNA against TMPRSS6, strands hcTMP-SR5-A/B, SEQ ID NO 141/142 (chain 1 mGfGmUfGmCfUmGfAmGfGmAfCmGfCmCfCmUfGmG; chain 2 fCmCfAmGfGmGfCmGfUmCfCmUfCmAfGmCfAmCfC) |  |  | 8.4 nM | 100% | 85% |
| TMPRSS-SR-16: siRNA against TMPRSS6, strands hcTMP-SR16-A/B, SEQ ID NO 158 (as printed)/160 (chain 1 CUCAGCACCCCGUACUUCC; chain 2 UCAGCACCCCGUACUUCCC; listed as RNA, chemistry not fully specified) |  |  | 8.4 nM | 100% | 88% |
| TMPRSS-SR-21: siRNA against TMPRSS6, SEQ ID NO 167/168 (chain 1 mAfGmCfUmGfGmGfGmAfAmGfUmAfCmGfGmGfGmU; chain 2 fAmCfCmCfCmGfUmAfCmUfUmCfCmCfCmAfGmCfU) |  |  | 5.8 nM | 100% | 92% |
| TMPRSS-SR-27: siRNA against TMPRSS6, SEQ ID NO 177/178 (chain 1 mAfGmUfAmGfUmAfGmCfUmGfGmGfGmAfAmGfUmA; chain 2 fUmAfCmUfUmCfCmCfCmAfGmCfUmAfCmUfAmCfU) |  |  | 2.8 nM | 94% | 84% |
| TMPRSS-hc-16: siRNA against TMPRSS6, SEQ ID NO 195/196 (chain 1 mUfAmUfUmCfCmAfAmAfGmGfGmCfAmGfCmUfGmA; chain 2 fUmCfAmGfCmUfGmCfCmCfUmUfUmGfGmAfAmUfA) |  |  | 7.7 nM | 100% | 91% |
| TMPRSS-hc-17: siRNA against TMPRSS6, SEQ ID NO 197/198 (chain 1 AUCUUCUGGGCUUUGGCGG; chain 2 CCGCCAAAGCCCAGAAGAU; chain 1: sugars from the 5' end mfmfmfmfmfmfmfmfmfm, backbone not given here; chain 2: sugars from the 5' end fmfmfmfmfmfmfmfmfmf, backbone not given here) |  |  | 2.4 nM | 82% | 79% |
| TMPRSS-hc-18: siRNA against TMPRSS6, SEQ ID NO 199/200 (chain 1 UUUUCUCUUGGAGUCCUCA; chain 2 UGAGGACUCCAAGAGAAAA; chain 1: sugars from the 5' end mfmfmfmfmfmfmfmfmfm, backbone not given here; chain 2: sugars from the 5' end fmfmfmfmfmfmfmfmfmf, backbone not given here) |  |  | 4.6 nM | 95% | 90% |
| TMPRSS-hc-19: siRNA against TMPRSS6, SEQ ID NO 201/202 (chain 1 mGfAmAfUmAfGmAfCmGfGmAfGmCfUmGfGmAfGmU; chain 2 fAmCfUmCfCmAfGmCfUmCfCmGfUmCfUmAfUmUfC) |  |  | 6.1 nM | 100% | 89% |
| TMPRSS-hc-22: siRNA against TMPRSS6, SEQ ID NO 205/206 (chain 1 mAfGmAfUmCfCmUfGmGfGmAfGmAfAmGfUmGfGmC; chain 2 fGmCfCmAfCmUfUmCfUmCfCmCfAmGfGmAfUmCfU) |  |  | 8.1 nM | 99% | 73% |
| TMPRSS-hc-23: siRNA against TMPRSS6, SEQ ID NO 207/208 (chain 1 CUGUUCUGGAUCGUCCACU; chain 2 AGUGGACGAUCCAGAACAG; chain 1: sugars from the 5' end mfmfmfmfmfmfmfmfmfm, backbone not given here; chain 2: sugars from the 5' end fmfmfmfmfmfmfmfmfmf, backbone not given here) |  |  | 4.6 nM | 83% | 70% |
| TMPRSS-hcm-25: siRNA against TMPRSS6, SEQ ID NO 211/212 (chain 1 AGUUUCUCUCAUCCAGGCC; chain 2 GGCCUGGAUGAGAGAAACU; chain 1: sugars from the 5' end mfmfmfmfmfmfmfmfmfm, backbone not given here; chain 2: sugars from the 5' end fmfmfmfmfmfmfmfmfmf, backbone not given here) |  |  | 4.6 nM | 87% | 85% |
| TMPRSS-hcr-26: siRNA against TMPRSS6, SEQ ID NO 213/214 (chain 1 GUACCCUAGGAAAUACCAG; chain 2 CUGGUAUUUCCUAGGGUAC; chain 1: sugars from the 5' end mfmfmfmfmfmfmfmfmfm, backbone not given here; chain 2: sugars from the 5' end fmfmfmfmfmfmfmfmfmf, backbone not given here) |  |  | 3.5 nM | 100% | 98% |
